From patent US8889902B2, “Acetylsalicylic acid salts” (priority 2009, dated 2014)

Experiments:
[1] = test system: abdominal constrictions in writhing test model; experiment: Mouse writhing test (acetic acid i.p.); assay type: in vivo, mice
Method: In investigating the analgesic, anti-inflammatory and antipyretic effects of MASA methods widely used in evaluation of NSAIDs were employed. Mongrel white laboratory mice and Wistar rats were used in experiments. Animals were kept in groups of 7-8 in adequate cages in climatized rooms at 22±1° C., relative humidity 60±5% and 12/12-hour light/darkness cycle with free access to feed and water.
Aqueous solutions of test substances were prepared ex tempore. In each experimental series a control group was used that received an identical volume of water p.o.
Nociceptive reaction was evaluated by chemical irritation method—writhing test (Charaborty A et al, Indian J of Pharmacology 2004; 36(3):148-150). Animals received i.p. 0.25 ml of 0.75% aqueous acetic acid solution: After the injection animals were placed separately in special boxes and observed for 10 minutes. The number of abdominal constrictions was registered. Analgesic activity was manifested by reduction of the number of abdominal constrictions in the 10 minutes period. Test substances were introduced 30 min before the irritating agent. The level of analgesia was expressed as analgesic index calculated as follows: A=(Cc−Ct)/Cc·100%, where A—Analgesic index Cc—number of contractions in control group, Ct—number of contractions in the test group.

carrageneen paw oedema = experiment: Carrageneen oedema, preventive mode; assay type: in vivo, rats; details: 100 mg/kg p.o., preventive 6 times; 4 h
Method: The […] oedema was investigated by established method ([…], Patol Fiziol Eksp Ter, 2002(2):24-7 (Rus) on 42 rats with body mass of 178-220 g: […] The prevention index was calculated as indicated in previous section.

CRP = CRP levels in blood, carrageneen inflammation model; assay type: in vivo, rats; details: 100 mg/kg
Method: To evaluate the intensity of the inflammation process the CRP levels were determined by standard method on analyzer ? INTEGRA 400+ ? at the end of experiment (5 hours after injection of carrageneen).

[2] = test system: adjuvant arthritis induced by Freund's adjuvant; experiment: Adjuvant arthritis: paw volume and ankle joint; assay type: in vivo, Wistar rats; details: 100 mg/kg daily p.o.
From the text: Our experiments were scheduled to test the influence of MASA on the progress of adjuvant arthritis in comparison with MD and ASA. […] Each standard cage housed 7 rats with unlimited access to drinking water and granulated standard feed. […] All efforts were made to minimize animal suffering and to reduce the number of animals used. A modified standard procedure for inducting and evaluating the progress of chronic adjuvant arthritis was used (Bellavite P, Ortolani R, Conforti A, Immunology and Homeopathy. 3. Experimental Studies on Animal Models, Advance Access Publication 2.05, 2006, 171-186). […] The solutions of test substances were prepared ex tempore. […] Test solutions were introduced to animal p.o. by catheter into the stomach. […] The effects of test substances were evaluated using the following criteria: The oedema, i.e. the volume of hind paw was measured by oncometer. The percentage of prevention (inhibition of oedema) was calculated according to formula: P(%)=(Vc−Vt)/Vc×100, where Vc—paw volume in control group Vt—paw volume in test group P—Prevention in % (inhibition of oedema).

[3] = test system: WBC, CRP, CIC in adjuvant arthritis; experiment: Adjuvant arthritis: WBC, CRP and CIC in blood; assay type: in vivo, Wistar rats; details: 100 mg/kg daily p.o.
Method: Our experiments were scheduled to test the influence of MASA on the progress of adjuvant arthritis in comparison with MD and ASA. Experiments were conducted on Wistar rats with starting body mass of 153-185 g. Rats were kept in climatized rooms at 22±1° C., relative humidity 60±5% and 12/12-hour light/darkness cycle. Each standard cage housed 7 rats with unlimited access to drinking water and granulated standard feed. All experiments were carried out in accordance with the European Community Council's Directive of 24 Nov. 1986 (86/609/EEC) relative to experimental animal care. All efforts were made to minimize animal suffering and to reduce the number of animals used.
A modified standard procedure for inducting and evaluating the progress of chronic adjuvant arthritis was used (Bellavite P, Ortolani R, Conforti A, Immunology and Homeopathy. 3. Experimental Studies on Animal Models, Advance Access Publication 2.05, 2006, 171-186). Rats were injected into the hind foot pad 0.1 ml and intraperitonealy with 0.05 ml of complete Freund's adjuvant solution.
Hematological indices were determined by standard methods on hematological analyzer ? PENTRA 120 ? , CRP was determined on ? INTEGRA 400+ ? . Levels of CIC in blood serum were determined spectrometrically, using […].

rat ear skin temperature = experiment: Ear skin temperature rise caused by NA, p.o. administration; assay type: in vivo, Wistar rats; details: for Max incr. %: NA alone = 100
Method: Male Wistar rats (280-330 g) were used. Animals were held in groups of 6 in climatized rooms at 22±1° C., relative humidity 60±5%, and 12/12-hour light/dark cycle with free access to drinking water and feed (R3—Lactamin AB, Sweden). For registration of changes in skin temperature of intact rats contactless temperature recording method was used (Papaliodis D et al, Br J Pharmacol 2008; 153:1382-1387). Temperature measurements were performed with a hand-held infrared thermometer (Model Proscan 510, TFA-Dostman). Animals were habituated to handling and to the infrared probe for 3 days before use. Temperature readings from the dorsal side of each ear were recorded without anaesthesia at beginning and during experiment. The ear temperature was measured every 5 min. for a period of up to 60 min. The animals were returned to their cages between measurements. NA, MD and MASA were dissolved in saline and pH was corrected immediately before usage. LA (MK 0524, Cayman Chemicals) was first dissolved in DMSO and then freshly diluted with 0.9% NaCl, on each day of the experiment. The rate of NA and LA combination was based on Summary of Product Characteristics for Tredaptive™ (nicotinic acid/laropiprant) 1000 mg/20 mg modified-release tablets.
9.2.3. Investigation of the Effect of MASA/NA and MD/NA Combination on Skin Temperature at Simultaneous or 45 Min Advance p.o. Administration

Compound: C[N+](C)(C)NCCC(=O)[O-].O.O [MD, 3-(Trimethylammonioamino)propanoate dihydrate]
- Analgesic index ([1]; 100 mg/kg p.o.): −0.4
- Animals with positive reaction/total number ([1]; 100 mg/kg p.o. 30 min before acetic acid): 8/8
- No. of constrictions ([1]; 100 mg/kg p.o., 10 min observation): 22.10 ± 1.47
- Reduction in % (oedema) (carrageneen paw oedema): 34%
- Volume of paw after injection of carrageneen (carrageneen paw oedema): 1.66 ± 0.10 mL
- CRP (CRP; 5 h after carrageneen): 0.22 ± 0.014 mg/L
- CRP increase % (CRP; carrageneen control = 100): 83%
- Dimensions of ankle joint on Day 14 [2]: 7.0 ± 0.13 mm
- Dimensions of ankle joint on Day 28 [2]: 7.0 ± 0.13 mm
- Paw volume on Day 14 [2]: 2.60 ± 0.21 mL
- Paw volume on Day 28 [2]: 1.93 ± 0.13 mL
- Prevention %, paw volume Day 14 ([2]; vs AdA): −7%
- Prevention %, paw volume Day 28 ([2]; vs AdA): 13%
- CIC units, Day 14 [3]: 11.8 ± 2.22 units
- CIC units, Day 28 [3]: 8.6 ± 0.93 units
- CRP, Day 14 [3]: 0.26 ± 0.02 mg/L
- CRP, Day 28 [3]: 0.17 ± 0.02 mg/L
- Leucocytes (WBC), Day 14 [3]: 14.42 ± 1.41^# 10^3/mm^3
- Leucocytes (WBC), Day 28 [3]: 15.55 ± 1.26^# 10^3/mm^3
- Temp. 15 min (rat ear skin temperature; MD 100 mg/kg p.o. alone): 30.1 ± 0.39^$$ ° C.
- Temp. 30 min (rat ear skin temperature; MD 100 mg/kg p.o. alone): 29.8 ± 0.38^$$$ ° C.
- Temp. 45 min (rat ear skin temperature; MD 100 mg/kg p.o. alone): 30.0 ± 0.34^$$ ° C.
- Max incr. % (rat ear skin temperature; MD 100 mg/kg p.o. alone): 6%

Compound: O=C(O)c1cccnc1 [NA, nicotinic acid]
- Temp. 15 min (rat ear skin temperature; NA 40 mg/kg p.o.): 32.3 ± 0.46 °C
- Temp. 30 min (rat ear skin temperature; NA 40 mg/kg p.o.): 33.1 ± 0.41 °C
- Temp. 45 min (rat ear skin temperature; NA 40 mg/kg p.o.): 32.4 ± 0.48 °C
- Max incr. % (rat ear skin temperature; NA 40 mg/kg p.o.): 100%
